From patent publication US11896713B2, “Strategies to enhance lung cancer treatment” (Rutgers, The State University of New Jersey, priority 2020, dated 2024)
“Also recorded” adds a separate entry of the source. Residues, ends and D or L forms follow the SMILES beside them.

Key:
human lung cancer cells = assay: Orthotopic lung cancer model treated with liposomal cisplatin or carboplatin; assay type: in vivo, mice; settings: intravenous, 2.5 mg/kg
Procedure: Orthotopic lung cancer mouse model was created by intratracheal instillation of human lung cancer cells. The progression of tumor growth was monitored using bioluminescent and magnetic resonance (MRI) imaging. Luciferase transfected cancer cells were visualized in live anesthetized animals using in-vivo bioluminescence IVIS system (Xenogen, Alameda, CA). Luciferin (150 mg/kg) was intraperitoneally administered 10-15 minutes before imaging. All imaging procedures were performed at special imaging facilities of the Rutgers University Molecular Imaging Center as previously described. Mice were anesthetized with isoflurane (4% for induction of anesthesia and 1-2% for maintenance) using XGI-8 Gas Anesthesia System (Xenogen, Alameda, CA) for all imaging procedures. MRI was performed using a 1 T M2™ whole body scanner (Aspect Imaging, Shoham, Israel). Images (repetition time 2607 ms, echo time 44 ms) were recorded in Fast Spin Echo sequence. At a spatial resolution of 312 μm, the tumors were coronal imaged in a single section through the mouse body using an image matrix of 256×256, a field of view of 80 mm^2, and 4 excitation. Magnetic resonance signal and tumor volume were calculated using VivoQuant 1.21 software (Invicro, Boston, MA).
In order to deliver liposome-based system by inhalation, a Collison nebulizer (BGI, Inc., Waltham, MA) was connected to four-port nose-only exposure chambers (the chamber was made by CH Technologies, Westwood, NJ according to our design). […] The installation was designed and regime of inhalation was selected to keep the inhalation dosage controllable and uniform from animal to animal with a minimal damage to the nanoparticles. The solution of NLC was aerosolized at a flow rate of 2 L/min and then diluted by an additional 2 L/min of air. […] It was also shown that the aerosol distribution between the four ports of the chamber was homogenous. The dose of Cis and Carb in all drug-containing formulations was 2.5 mg/kg for the single administration.

[1] = tested on: LHRH-positive lung cancer cells; assay: Cytotoxicity (MTT) and competitive inhibition by LHRH peptide; assay type: cell-based
Procedure: (§1) Cytotoxicity, Apoptosis Induction and Immune Response. The toxicities of the developed formulations were compared with a commercially used EGFR inhibitor gefitinib in three types of human lung cancer cells with different resistance to the drug. […] Cytotoxicity and apoptosis induction were analyzed by a modified 3-(4,5-Dimethylthiazol-2-yl)-2,5-diphenyltetrazolium bromide (MTT) assay and cell death detection ELISA Plus kit (Roche, Nutley, NJ), respectively. The cells were seeded on a 96 well plate at 10,000 cells per well with 100 μl of growth media in each well and placed in the incubator for 24 hours. After 24 hours, the media was removed and the cells were treated with varying concentrations of above indicated substances. The concentrations of tested substances were prepared using a serial dilution (1:2) to make 12 different working solutions for the cytotoxicity measurement.

A549 lung cancer cells = assay: Orthotopic lung cancer model, tumor volume; assay type: in vivo, mice; settings: intravenous, TAX 2.5 mg/kg
Procedure: In Vivo Lung Cancer Model, Imaging and Treatment. All animal experiments were carried out according to the protocol approved by Institutional Animal Care and Use Committee (IACUC). Nude mice were purchased from the approved commercial vendor (Taconic, Germantown, NY). All aspects of the program for procurement, conditioning/quarantine, housing management, veterinary care and disposal of carcasses followed the guidelines set forth in the NIH Guide for the Care and Use of Laboratory Animals. Animals were housed in the […]—accredited animal facility with free access to food and water. Veterinary care was supplied by Rutgers University Lab Animal Services. Orthotopic lung cancer mouse model was created by intratracheal instillation of A549 lung cancer cells as previously described. The progression of tumor growth was monitored using bioluminescent and magnetic resonance (MRI) imaging. Luciferase transfected cancer cells were visualized in live anesthetized animals using in-vivo bioluminescence IVIS system (Xenogen, Alameda, CA). Luciferin (150 mg/kg) was intraperitoneally administered 10-15 minutes before imaging. […] Images (repetition time 2607 ms, echo time 44 ms) were recorded in Fast Spin Echo sequence. […] Magnetic resonance signal and tumor volume were calculated using VivoQuant 1.21 software (Invicro, Boston, MA). […]

NCI-H1781 cells = assay: Cytotoxicity (MTT); assay type: cell-based, human; settings: 72 h, 1 μM
Procedure: as §1

NCI-H3255 cells = assay: Cytotoxicity (MTT); assay type: cell-based, human; settings: 72 h, 1 μM
Procedure: as §1

A549 cells = assay: Cytotoxicity (MTT); assay type: cell-based, human; settings: 72 h, 1 μM
[2] = tested on: NCI-H1781, A549 and NCI-H3255 NSCLC cell lines; assay: Apoptosis induction (cell death detection ELISA); assay type: cell-based, human; settings: 72 h; 1 μM gefitinib or 0.3 ng/ml nanocarrier
Procedure: as §1
The control cells were incubated with fresh media. Previously validated in our laboratory MTT and apoptosis induction measurement protocols were used.

In the case of `N.N.O=C([O-])C1(C(=O)[O-])CCC1.[Pt+2]` [Carb, carboplatin], the antitumor effect (human lung cancer cells) is reported as “slightly slowed the tumor progression; also recorded: somewhat higher antitumor activity”.

In the case of `N.N.[Cl][Pt][Cl]` [Cis, cisplatin], the antitumor effect (human lung cancer cells) is reported as “slightly slowed the tumor progression”.

For `CCNC(=O)[C@@H]1CCCN1C(=O)[C@H](CCCNC(=N)N)NC(=O)[C@H](CC(C)C)NC(=O)[C@@H](CCCCNC(=O)[C@H](N)CS)NC(=O)[C@H](Cc1ccc(O)cc1)NC(=O)[C@H](CO)NC(=O)[C@H](Cc1c[nH]c2ccccc12)NC(=O)[C@H](Cc1c[nH]cn1)NC(=O)[C@@H](N)CCC(N)=O` [LHRH peptide, Gln-His-Trp-Ser-Tyr-DLys(D-Cys)-Leu-Arg-Pro] (HELM PEPTIDE1{Q.H.W.S.Y.[dK].L.R.P.[CCN[*:1]]}|PEPTIDE2{[dC]}$PEPTIDE1,PEPTIDE2,6:R3-1:R2$$$V2.0), the cytotoxicity [1] was “did not demonstrate any toxicity” and the “effect of LHRH receptor ligand on cytotoxicity of LHRH-NLC-TAX” value ([1]; cells incubated with different concentrations of LHRH peptide) was “limited cytotoxicity of LHRH-NLC-TAX in a concentration-dependent manner”.

With `CC(=O)O[C@H]1C(=O)[C@@]2(C)[C@H]([C@H](OC(=O)c3ccccc3)[C@]3(O)C[C@H](OC(=O)[C@H](O)[C@@H](NC(=O)c4ccccc4)c4ccccc4)C(C)=C1C3(C)C)[C@]1(OC(C)=O)CO[C@@H]1C[C@@H]2O` [TAX, Paclitaxel] the “decrease of lung tumor volume at the end of the experiment” value (A549 lung cancer cells) was 1.1 times.

With `COc1cc2ncnc(Nc3ccc(F)c(Cl)c3)c2cc1OCCCN1CCOCC1` [gefitinib] the sensitivity to gefitinib (NCI-H1781 cells) was “most resistant to gefitinib”, the sensitivity to gefitinib (NCI-H3255 cells) was “the most sensitive to gefitinib” and the sensitivity to gefitinib (A549 cells) was “moderate sensitivity to gefitinib”. The apoptosis induction [2] was “correlated with its cytotoxicity”.
